Results from article PMC5380659, “Unique charge-dependent constraint on collagen recognition by integrin α10β1” (Matrix Biology, 2017).
“Also recorded” adds a separate entry of the source.

Experiments:
[1] = tested on: human recombinant GST-α10-R215Q I-domain; experiment: SPBA of α10-R215Q mutant I domain; format: binding; conditions: 2 mM MgCl2, relative to wild type α10 I domain, Fig. 8F, Fig. 9
Source text: The I domain was first applied to the collagen II and III Toolkits in the presence or absence of Mg^2 +, detected using anti-GST as before, and data are shown in Fig. 9A and B. α10-R215Q I domain binding was Mg^2 +-dependent, reproducing the wild type Toolkit II data shown in Fig. 1A.
(§1) pGEX-2T-α1, α2 and α10 I were used to generate the Q to R or R to Q mutations using QuikChange PCR kit from Stratagene (200518).
To express α2 wild type and mutant I domains, a 100-ml overnight culture of transformants (Origami strain) was used to inoculate 1 L of Luria broth containing 100 μg/ml ampicillin, 15 μg/ml Kanamycin and 12.5 μg/ml Tetracyclin. The culture was grown for 2 h at 37 °C and then induced at room temperature for 4 h with isopropyl β-D-thiogalactopyranoside (0.1 mM, Melford Laboratories, UK, #MB1008). Cells were harvested by centrifugation at 4500g for 20 min, and pellets for GST-fusion were resuspended in 10 ml Dulbecco's phosphate-buffered saline, containing 1 tablet of protease inhibitor cocktail (Roche) and 5 mg of lysozyme (Fluka). Suspensions were sonicated and Triton X-100 was added to 1% (v/v). Suspensions were mixed on a roller for 15 min at room temperature, then centrifuged at 18,000 × g for 20 min, and supernatants were pooled. […]
(§2) I domain adhesion was determined colorimetrically, as described, here termed solid phase binding assay (SPBA). […]

α1-Q214R I domain = experiment: SPBA of α1-Q214R mutant I domain; format: binding, human; conditions: Gln214 replaced with Arg, Fig. 8D
Source text: (§3) To test this hypothesis, we replaced the corresponding Q214 and Q215 in α1 and α2 I domains, respectively, with R, as in α10, and we replaced the R215 in the α10 I domain with Q, as in α1 and α2.
(§4) Fig. 8 Arginine substitution of I domain surface reduces binding to Toolkit peptide III-4. Wild type I domain from α1, α2 and α10 were allowed to adhere to Toolkit peptide III-4 that contains GROGER, as described in Fig. 1, and binding is shown in A, B and C, respectively. In D and E, the natural glutamine residues of α1, Q214, and of α2, Q215, was replaced with arginine. In F, the natural arginine, R215, of α10 was replaced with glutamine.
as §1
I domain adhesion was determined colorimetrically, as described, here termed solid phase binding assay (SPBA). Peptides were coated at 10 μg/ml for 1 h at 22 °C on Immulon-2 HB 96-well plates (Thermo Life Sciences, Basingstoke, UK), and blocked for 1 h with 200 μl of TBS containing 50 mg/ml bovine serum albumin. Wells were washed four times with 200 μl of the adhesion buffer (TBS with 1 mg/ml bovine serum albumin) before adding 100 μl of adhesion buffer containing 10 μg/ml of recombinant GST I domains in the presence of either 2 mM MgCl2 or EDTA for 1 h at room temperature. […]

α2-Q215R I domain = experiment: SPBA of α2-Q215R mutant I domain; format: binding, human; conditions: Gln215 replaced with Arg, Fig. 8E
Source text: as §3, §4, §1
To express α2 wild type and mutant I domains, a 100-ml overnight culture of transformants (Origami strain) was used to inoculate 1 L of Luria broth containing 100 μg/ml ampicillin, 15 μg/ml Kanamycin and 12.5 μg/ml Tetracyclin. The culture was grown for 2 h at 37 °C and then induced at room temperature for 4 h with isopropyl β-D-thiogalactopyranoside (0.1 mM, Melford Laboratories, UK, #MB1008). […]
as §2

[2] = tested on: Other I domains that lack such a positive residue; experiment: SPBA of I domains that lack the positive residue (wild type); format: binding, human; conditions: I domains lacking a positive residue at position 215
Procedure: as §4
I domain adhesion was determined colorimetrically, as described, here termed solid phase binding assay (SPBA). Peptides were coated at 10 μg/ml for 1 h at 22 °C on Immulon-2 HB 96-well plates (Thermo Life Sciences, Basingstoke, UK), and blocked for 1 h with 200 μl of TBS containing 50 mg/ml bovine serum albumin. Wells were washed four times with 200 μl of the adhesion buffer (TBS with 1 mg/ml bovine serum albumin) before adding 100 μl of adhesion buffer containing 10 μg/ml of recombinant GST I domains in the presence of either 2 mM MgCl2 or EDTA for 1 h at room temperature. Wells were washed five times with 200 μl of adhesion buffer containing MgCl2 or EDTA, before adding 100 μl of adhesion buffer containing the anti-GST-HRP conjugate at 1:10,000 dilution for 1 h at room temperature. After washing, colour was developed using an ImmunoPure TMB Substrate Kit (Pierce) according to the manufacturer's instructions.

integrin α1β1 = tested on: integrin α1β1; set-up: method as in 3 sources, ref [4]; PMID 19693543; doi:10.1007/s00441-009-0834-6; 4 Barczyk M. Carracedo S. Gullberg D. Integrins Cell Tissue Res. 339 1 2010 269 280 19693543 10.1007/s00441-009-0834-6 PMC2784866 ||| ref [12] = [12]; PMID 22654115; doi:10.1074/jbc.M112.353144; 12 Hamaia S.W. Pugh N. Raynal N. Nemoz B. Stone R. Gullberg D. Bihan D. Farndale R.W. Mapping of potent and specific binding motifs, GLOGEN and GVOGEA, for integrin alpha1beta1 using collagen toolkits ||| ref not given; conditions: cited from earlier work
Source text: The collagen-binding integrin family is complete, with four established members, α1β1, α2β1, α10β1 and α11β1. These are highly-conserved, heterodimeric receptors with an important structural feature in common, the presence of an I (inserted) domain which contains the metal ion-dependent adhesion site (MIDAS). The MIDAS is a constellation of electronegative residues at the distal surface of this 200-residue domain that, in the resting, non-ligated state, can co-ordinate a Mg^2 + ion. […] Many related motifs have now been identified using the Collagen Toolkits developed in this laboratory for the purpose. These are libraries of overlapping peptides of 27 amino acids of collagen primary sequence (guest sequence), flanked ... || Why would collagen II differ in this respect?

Row | Substance | Binding of α10-R215Q I domain [1] | Binding of α1-Q214R I domain (α1-Q214R I domain) | Binding of α2-Q215R I domain (α2-Q215R I domain) | Binding by other I domains [2] | Affinity for integrin α1β1 (integrin α1β1; ref [12]) | Affinity for integrin α1β1, discussion (integrin α1β1; ref not given)
1 | GROGER [short triple-helical peptide containing GROGER] | restored binding; also recorded: better binding | impaired their binding; also recorded: failed to bind; also recorded: collapse of binding | impaired their binding; also recorded: failed to bind; also recorded: collapse of binding | bind GROGER well |  | 
2 | GLOGEN [short THP containing GLOGEN] |  |  |  |  | high-affinity ligand | high-affinity site
